Laboratory results from US5618931A, “Acetylenes disubstituted with a 5 substituted dihydronaphthyl group and with an aryl or heteroaryl group having retinoid-like biological activity” (Allergan, priority 1994, dated 1997).

tested on: ornithine decarboxylase (ODC), TPA-induced activity; assay: not given; conditions: background statement on retinoic acid; cited from earlier work

| SMILES | inhibition of TPA induction of ODC activity (in words) |
| --- | --- |
| CC1=C(/C=C/C(C)=C/C=C/C(C)=C/C(=O)O)C(C)(C)CCC1 [Retinoic acid] | inhibits this induction of ODC activity by TPA |

tested on: ornithine decarboxylase (ODC), TPA-induced activity; assay: ODC assay: inhibition of TPA induction of ornithine decarboxylase; format: biochemical; conditions: concentration of the test compound which causes 80% inhibition in the ODC assay (TPA-induced ODC)
From the text: The retinoic acid-like activity of these compounds is confirmed through the classic measure of retinoic acid activity involving the effects of retinoic acid on ornithine decarboxylase. The original work on the correlation between retinoic acid and decrease in cell proliferation was done by Verma & Boutwell, Cancer Research, 1977, 37,2196-2201. That reference discloses that ornithine decarboxylase (ODC) activity increased precedent to polyamine biosynthesis. It has been established elsewhere that increases in polyamine synthesis can be correlated or associated with cellular proliferation. Thus, if ODC activity could be inhibited, cell hyperproliferation could be modulated. Although all cases for ODC activity increases are unknown, it is known that 12-O-tetradecanoylphorbol-13-acetate (TPA) induces ODC activity. […] Activity of exemplary compounds of the present invention in the above-described ODC assay is disclosed in Table 2 which provides the IC80 concentration for the respective exemplary compound. ("IC80 " is that concentration of the test compound which causes 80% inhibition in the ODC assay. By analogy, IC60, for example, is that concentration of the test compound which causes 60% inhibition in the ODC assay.)

| IC80 conc | SMILES |
| --- | --- |
| 2.3 nmols | CCOC(=O)c1ccc(C#Cc2ccc3c(c2)C(Sc2ccccc2)=CCC3(C)C)cc1 [Compound 155, Ethyl 4-[(7,8-dihydro-8,8-dimethyl-5-phenylthionaphth-3yl)ethynyl]benzoate] |
| 17.00 nmols | CCOC(=O)c1ccc(C#Cc2ccc3c(c2)C(OS(=O)(=O)C(F)(F)F)=CCC3(C)C)cc1 [Compound 66, Ethyl 4-[(5-trifluoromethylsulfonyloxy-7,8-dihydro-8,8-dimethylnapth-3-yl)ethynyl]benzoate] |
| 16.80 nmols | CCOC(=O)c1ccc(C#Cc2ccc3c(c2)C(C)(C)CC=C3OS(=O)(=O)C(F)(F)F)cc1 [Compound 87, Ethyl 4-[(5-trifluoromethylsulfonyloxy-7,8-dihydro-8,8-dimethylnaphth-2-yl)ethynyl]benzoate] |
| < 0.1 nmols | CCOC(=O)c1ccc(C#Cc2ccc3c(c2)C(S(=O)(=O)c2ccccc2)=CCC3(C)C)cc1 [Compound 157, Ethyl 4-[(7,8-dihydro-8,8-dimethyl-5-phenylsulfonylnaphth-3-yl)ethynyl]benzoate] |

| SMILES | IC80 conc |
| --- | --- |
| CCOC(=O)c1ccc(C#Cc2ccc3c(c2)C(OC(C)=O)=CCC3(C)C)cc1 [Compound 126, Ethyl 4-[(5-acetoxy-7,8-dihydro-8,8-dimethylnaphth-3-yl)ethynyl]benzoate] | 0.58 nmols |
| CCOC(=O)c1ccc(C#Cc2ccc3c(c2)C(C)(C)CC=C3OC(C)=O)cc1 [Compound 105, Ethyl 4-[(5-acetoxy-7,8-dihydro-8,8-dimethylnaphth-2-yl)ethynyl]benzoate] | 0.76 nmols |
